What is called IC50 is the concentration that inhibits the measured activity by half.

The values that follow come from patent US8436039B2, “Inhibitors of the ATB(0,+) transporter and uses thereof” (Georgia Health Sciences University Research Institute, Inc., priority 2008, dated 2013).

Assay [1] has as its target T1, ATB^0,+ in MCF7 cells (Homo sapiens, UniProt Q9UN76).
T1 construct: host or cells: MCF7
T1 sequence (Q9UN76 1-642): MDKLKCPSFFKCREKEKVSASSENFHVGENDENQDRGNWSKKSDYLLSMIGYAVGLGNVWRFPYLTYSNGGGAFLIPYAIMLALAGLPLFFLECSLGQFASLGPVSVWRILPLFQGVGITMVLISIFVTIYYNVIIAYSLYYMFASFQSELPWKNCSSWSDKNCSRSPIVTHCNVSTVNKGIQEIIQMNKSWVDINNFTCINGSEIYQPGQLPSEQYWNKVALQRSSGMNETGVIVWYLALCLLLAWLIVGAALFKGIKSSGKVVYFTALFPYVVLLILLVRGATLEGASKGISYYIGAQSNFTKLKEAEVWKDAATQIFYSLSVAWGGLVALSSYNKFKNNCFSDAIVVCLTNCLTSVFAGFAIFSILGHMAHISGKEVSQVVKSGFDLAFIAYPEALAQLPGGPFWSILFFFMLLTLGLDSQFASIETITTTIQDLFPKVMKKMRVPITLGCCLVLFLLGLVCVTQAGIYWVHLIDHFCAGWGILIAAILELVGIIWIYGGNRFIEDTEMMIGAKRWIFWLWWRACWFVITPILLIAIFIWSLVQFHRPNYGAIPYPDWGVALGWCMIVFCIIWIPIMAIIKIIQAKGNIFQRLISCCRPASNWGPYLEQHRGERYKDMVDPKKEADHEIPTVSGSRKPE
The assay can be described thus: D-serine uptake in MCF7 cells (constitutively expressed ATB^0,+). It is filed as cell-based. To be noted: for IC50: D-serine 5 μM, NaCl, read-out: IC50 for inhibition of D-serine uptake. The protocol:
Cells were seeded and grown in 24-well culture plates to confluency and used for uptake measurements. Radiolabelled glycine or D-serine was used as the substrate to determine the transport function of ATB^0,+. Uptake measurements were routinely made in an NaCl-containing buffer (25 mM Hepes/Tris buffer, pH 7.4, 140 mM NaCl, 5.4 mM KCl, 1.8 mM CaCl2, 0.8 mM MgSO4 and 5 mM glucose). Ion dependence of the transport process was evaluated by studying the uptake activity in buffers of varying compositions. NaCl in the uptake buffer was replaced iso-osmotically with NMDG (N-methyl-D-glucamine) chloride to prepare an Na^+-free buffer, and with sodium gluconate to prepare a Cl^−-free buffer. Linear uptake rates were determined by employing a 10 min incubation period, based on time course experiments. Na^+-activation kinetics was analysed by studying the uptake rates in the presence of varying concentrations of Na^+ (2.5-140 mM) in the uptake buffer with Cl^− concentration kept constant at 140 mM. This was done by replacing NaCl with appropriate concentrations of NMDG. Cl^−-activation kinetics was analysed by studying the uptake rates in the presence of varying concentrations of Cl^− (2.5-100 mM) in the uptake buffer with Na^+ concentration kept constant at 140 mM. This was done by replacing NaCl with appropriate concentrations of sodium gluconate. Uptake data for Na^+- and Cl^−-activation kinetics were analysed using the Hill equation, and values for K0.5 for Na^+ and Cl^− and for the Hill coefficient (h) were determined by linear and non-linear regression methods. A commercially available software program (Sigma Plot, version 6.0; SPSS) was used for this purpose. Substrate specificity of the uptake process was evaluated by monitoring the effects of unlabelled amino acids (5 mM) on the uptake of radiolabelled glycine or D-serine (5 μM: radiolabelled substrate, 0.05 μM; unlabelled substrate, 4.95 μM).
The kinetic nature of inhibition of D-serine uptake by α-methyl-DL-tryptophan was investigated in MCF7 cells by monitoring the uptake at increasing concentrations of D-serine (range, 50-2000 μM) in the absence and presence of 100 μM α-methyl-DL-tryptophan. The kinetic parameters were calculated by linear regression (Eadie-Hofstee plots) and the values were confirmed by non-linear regression.
We employed a similar experimental strategy to detect specifically the transport function of ATB^0,+ in the remaining seven cell lines. […] We also investigated the effect of α-methyl-DL-tryptophan on D-serine uptake in MCF7 cells.

The target in assay [2] is human LAT1/4F2hc (Homo sapiens, UniProt Q01650). The assay can be described thus: Inhibition of LAT1 transport function: L-valine uptake in HRPE cells co-expressing human LAT1 and human 4F2hc. It is filed as cell-based. To be noted: for effect on cDNA-induced valine uptake: 1 mM, L-[14C]valine 0.75 μM, 5 min.
The mark [3] stands for this setting: α-methyl-DL-tryptophan 100 μM, MCF7 cells.

The structures appear in SMILES notation.

human LAT1/4F2hc, sequence (Q01650 whole entry): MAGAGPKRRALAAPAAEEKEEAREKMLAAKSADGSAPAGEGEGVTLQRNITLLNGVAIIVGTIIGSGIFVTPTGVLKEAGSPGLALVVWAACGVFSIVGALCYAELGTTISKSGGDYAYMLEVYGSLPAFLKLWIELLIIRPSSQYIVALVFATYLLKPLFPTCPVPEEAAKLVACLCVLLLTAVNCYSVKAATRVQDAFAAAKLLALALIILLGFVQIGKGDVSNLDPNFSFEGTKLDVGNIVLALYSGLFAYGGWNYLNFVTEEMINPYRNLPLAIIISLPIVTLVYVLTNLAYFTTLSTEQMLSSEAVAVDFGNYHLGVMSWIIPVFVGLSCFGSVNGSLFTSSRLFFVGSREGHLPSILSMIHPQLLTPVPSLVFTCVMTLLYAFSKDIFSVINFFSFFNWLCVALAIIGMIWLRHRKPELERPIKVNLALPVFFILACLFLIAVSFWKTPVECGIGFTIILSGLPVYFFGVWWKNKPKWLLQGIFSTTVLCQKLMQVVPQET
human LAT1/4F2hc, sequence (P08195 102-630 partner): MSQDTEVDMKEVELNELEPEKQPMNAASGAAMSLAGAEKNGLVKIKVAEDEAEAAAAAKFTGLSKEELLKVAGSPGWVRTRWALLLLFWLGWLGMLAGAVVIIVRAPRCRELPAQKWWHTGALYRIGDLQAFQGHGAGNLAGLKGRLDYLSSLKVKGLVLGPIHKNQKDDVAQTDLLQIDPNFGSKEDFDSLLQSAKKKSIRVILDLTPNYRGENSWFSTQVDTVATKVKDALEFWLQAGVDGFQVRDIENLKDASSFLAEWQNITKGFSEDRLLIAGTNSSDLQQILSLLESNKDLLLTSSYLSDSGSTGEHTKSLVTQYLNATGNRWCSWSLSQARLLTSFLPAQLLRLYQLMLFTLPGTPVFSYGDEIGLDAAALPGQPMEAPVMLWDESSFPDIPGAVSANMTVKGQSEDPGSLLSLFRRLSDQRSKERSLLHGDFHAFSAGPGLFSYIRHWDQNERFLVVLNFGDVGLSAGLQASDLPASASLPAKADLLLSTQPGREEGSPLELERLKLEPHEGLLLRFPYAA

As for `CC(N)(Cc1c[nH]c2ccccc12)C(=O)O` (racemic) [α-methyl-DL-tryptophan], the “kinetic nature of inhibition of D-serine uptake” value in assay [1] (100 μM blocker, D-serine 50-2000 μM, Eadie-Hofstee) is given as “competitive”. In assay [1] (setting [3]), the “Kt for D-serine uptake in the presence of blocker” value was 869 ± 52 µM and the “Vmax for D-serine uptake in the presence of blocker” value is 33.3±1.4 nmol/mg of protein per 15 min. In assay [2], the “type of inhibition of LAT1” value is on record as “competitive inhibitor” and the “effect on cDNA-induced valine uptake” value is reported as “abolished completely”.
On to `Cn1cc(C[C@@H](N)C(=O)O)c2ccccc21` [1-methyl-D-tryptophan], for which, in assay [1] (MCF7 cells), the IC50 came out at 1580 ± 180 µM.
`Cn1cc(C[C@H](N)C(=O)O)c2ccccc21` [1-methyl-L-tryptophan]: in assay [1] (MCF7 cells), the concentration for half-maximal inhibition (IC50) worked out at 86 ± 11 µM. In addition, in assay [1] (D-serine uptake, MCF7 cells), the “IC50 of L-isomer lower compared with D-isomer” value was “at least 15 fold”. In assay [2], the “effect on cDNA-induced valine uptake” value is listed as “abolished completely”.
Take `Cn1cc(CC(N)C(=O)O)c2ccccc21` (racemic) [1-methyl-DL-tryptophan]: the half-inhibitory concentration (IC50) in assay [1] (MCF7 cells) was found to be 221 ± 40 µM. In assay [2], the “effect on cDNA-induced valine uptake” value was “abolished completely”.
